Values quoted from earlier work as cited in patent US10888535B2, “Skin disinfectant composition” (priority 2015, dated 2021).

In the case of `CCCCCCCCNC(=N)NC(=N)NCc1ccc(Cl)c(Cl)c1` [Olanexidine, 1-(3,4-dichlorobenzyl)-5-octylbiguanide], the solubility in water is listed as “extremely insoluble in water”.

For `CCCCCCCCN=C(N)NC(N)=NCc1ccc(Cl)c(Cl)c1.O=C(O)[C@H](O)[C@@H](O)[C@H](O)[C@H](O)CO` [gluconate of olanexidine], the solubility in water is given as “sufficient solubility in water”.
